# In the NIST ThermoML archive (doi:10.1016/j.tca.2017.12.015):
# Numbers after ± are expanded uncertainties.
# Details: Crystal 1; DTA
row,Normal melting temperature [°C],Structure (SMILES)
1,190.90 ± 2,OC[C@H]1O[C@@](CO)(O[C@H]2O[C@H](CO)[C@@H](O)[C@H](O)[C@H]2O)[C@@H](O)[C@@H]1O [D-sucrose]
2,254.70 ± 2,NCC(=O)O [2-aminoacetic acid]
3,162.10 ± 2,O=C[C@H](O)[C@@H](O)[C@H](O)[C@H](O)CO [D-glucose]
4,99.70 ± 2,OC[C@@H](O)[C@@H](O)[C@H](O)[C@@H](O)CO [D-sorbitol]
5,236.20 ± 2,Cn1c(=O)c2c(ncn2C)n(C)c1=O [caffeine]

# Same assay, conditions: Crystal 2; DSC
row,Triple point temperature [K],Structure (SMILES)
1,432.55 ± 6,Cn1c(=O)c2c(ncn2C)n(C)c1=O [caffeine]
